Entries after “also recorded” stand apart in the source; their conditions may differ.

One assay has as its system MMP-9. Put plainly: Gelatin zymography of HT1080 cells, compound 1 with or without TGF-β1 (densitometry), 92 kDa. It counts as cell-based, human. The settings on record: control band = 100%. The method, then: (§1) Conditioned media for zymogram and Western blot analysis were produced under serum-free conditions. Cells (2 million) were plated in 25 cm^2 flasks in serum-containing medium and cultured overnight. Serum-containingmedium was removed and the cell monolayers were washed twice with DMEM/ITS (DMEM containing insulin (5 μg/mL), transferrin (5 μg/mL), and selenium (5 ng/mL)). The resultant cells were fed with 3 mL of DMEM/ITS and additives as described in the Examples for two 24 hour periods. Conditioned media samples were collected at 24 hours and cells were refed with fresh DMEM/ITS containing the described additives for an additional 24 hours. Conditioned media samples were centrifuged to remove cells and debris then frozen at -20° C. until use. Freeze and thaw cycles of the conditioned media were limited to no more than two.
(§2) A2058 human melanoma cells, human HT1080 fibrosarcoma cells, and OVCAR3 human ovarian cancer cells were incubated with increasing concentrations of compound 1 (0.2-20 μM) or DMSO control (0.05%) and subjected to gelatin zymography. Aliquots of conditioned medium (15 μL) were electrophoresed on gelatin-containing 10% PAGE gels under nonreducing but denaturing conditions. These conditions allow the different gelatin-degrading species (MMPs) to separate by size. The enzymes renature after removal of the SDS by incubation of the gel with 2.5 % Triton X-100, and degrade the gelatin substrate present in the polyacrylamide gel upon overnight incubation in low salt collagenase buffer. Bands of clearing, seen after Coomassie blue staining correspond to areas of gelatinase activity.
(§3) A2058 and HT1080 cells were incubated with compound 1 (2 μM), with or without TGF-β1 (5 ng/mL) for 24 and 48 hours prior to harvest of conditioned media. Aliquots were subjected to gelatin zymography as described in Example 1. Known concentrated conditioned medium from HT1080 cells was used for identification of the gelatinase species (92 kDa, gelatinase B/MMP-9; 72 kDa, gelatinase A/MMP-2 latent form; 65 kDa intermediate and 62 kDa activated forms of MMP-2).
(§4) Lane 1 is the control resulting from treatment of the cells with 0.1% DMSO. Lanes 2 and 3 correspond to those cells which are treated with 2 μM compound 1 in the absence of TGF-β1 for 24 and 48 hours, respectively. Lane 4 corresponds to cells which have been treated with TGF-β1 in the absence of compound 1. Lane 5 corresponds to cells which have been treated with TGF-β1 for 48 hours with compound 1 being added to the incubation mixture for the final 24 hours. Lane 6 corresponds to cells which have been treated for 48 hours with both TGF-β1 and compound 1.
(§5) *The control band was defined as 100% gelatinase activity and the other
(§6) bands were normalized to it. Numbers reflect triplicate measurements from
(§7) each zymogram band of representative zymograms. Standard deviations, not

Assay [1] concerns MMP-2. Put plainly: Gelatin zymography of A2058 cells, compound 1 with or without TGF-β1 (densitometry). It counts as cell-based, human. To be noted: control band = 100%. The method, then:
as §1, §2, §3, §4, §5, §6, §7

In assay [2] the test system is proliferation and metastasis. To be noted: cited from earlier work.
Assay [3] has as its system receptor-operated and voltage-gated calcium influx. To be noted: cited from earlier work.
A further assay relates to MMP-1. Put plainly: Northern blot of MMP-1 mRNA from A2058 cells. It counts as cell-based, human. To be noted: 2 μM. How it is done: (§8) This example illustrates the effect of compound 1 on MMP-1 and MMP-2 mRNA from A2058 cells using Northern blot analysis.
Total cytoplasmic RNA was purified from A2058 cells using cesium chloride density centrifugation. Cells were treated with DMSO vehicle (0.05 %) or compound 1 (2 μM) for 24 or 48 hr. Total RNA yields from treated and control cells (μg/10^6 cells) were similar. Aliquots (5 μg) of total RNA were denatured and separated on formaldehyde-1% agarose slab gels, passively transferred to GeneScreen, and crosslinked using ultraviolet light exposure. RNA was hybridized in buffer (50% deionized formamide, 5x SSC, 10 mM Tris HCl pH 7.5, 1x Denharts solution without albumin, 1.0% SDS, and 0.125 mg/mL salmon sperm DNA) containing 10^6 counts/mL of ^32 P- labeled probe of either MMP-2, MMP-1, or with GAPDH which was used as a measure of RNA load. Probes were labeled to high specific activity with ^32 P-dCTP using a random primer labeling protocol. The cDNA probes for the MMP-2, MMP-1, and GAPDH have been described. See, Brown, et al., Cancer Res. 50:6184-6191 (1990); Templeton, et at., Cancer Res. 50:5431-5437 (1990); and Fort, et al., Nucleic Acids Res. 13:1431-1441 (1985). Radiolabeled bands were quantitated using laser densitometric analysis of autoradiography bands. […]

The test system of the next assay is gelatinase activity. Nature of the assay: Gelatin zymography of A2058 and HT1080 cells, compound 1 with or without TGF-β1 (results in words). It counts as cell-based, human. How it is done: as §3, §4
Assay [4] concerns MMP-2. Put plainly: Northern blot of MMP-2 mRNA from A2058 cells. It is filed as cell-based, human. To be noted: 2 μM; for inhibition in MMP-2 transcription: corrected for loading (GAPDH). How it is done: as §8
Total cytoplasmic RNA was purified from A2058 cells using cesium chloride density centrifugation. Cells were treated with DMSO vehicle (0.05 %) or compound 1 (2 μM) for 24 or 48 hr. Total RNA yields from treated and control cells (μg/10^6 cells) were similar. Aliquots (5 μg) of total RNA were denatured and separated on formaldehyde-1% agarose slab gels, passively transferred to GeneScreen, and crosslinked using ultraviolet light exposure. RNA was hybridized in buffer (50% deionized formamide, 5x SSC, 10 mM Tris HCl pH 7.5, 1x Denharts solution without albumin, 1.0% SDS, and 0.125 mg/mL salmon sperm DNA) containing 10^6 counts/mL of ^32 P- labeled probe of either MMP-2, MMP-1, or with GAPDH which was used as a measure of RNA load. Probes were labeled to high specific activity with ^32 P-dCTP using a random primer labeling protocol. The cDNA probes for the MMP-2, MMP-1, and GAPDH have been described. See, Brown, et al., Cancer Res. 50:6184-6191 (1990); Templeton, et at., Cancer Res. 50:5431-5437 (1990); and Fort, et al., Nucleic Acids Res. 13:1431-1441 (1985). Radiolabeled bands were quantitated using laser densitometric analysis of autoradiography bands. Numeric data are presented as percent inhibition of IVase or interstitial collagenase expression corrected for loading using GAPDH.

The subject of assay [5] is MMP-2. Put plainly: Western immunoblot of conditioned media from compound 1 and TGF-β1 treated cells. It is filed as cell-based, human. The settings on record: HT1080 and A2058; 2 μM, 24 and 48 hr. How it is done:
A2058 and HT1080 conditioned media samples were concentrated 10-fold using ultrafiltration units excluding material of less than 10 or 30 kDa in molecular weight. Aliquots of 15 μL were electrophoresed on 4-20% gradient PAGE gels, electrically transferred to membranes and immunoblotted with specific polyclonal antibody to proMMP-2. This antibody, made to the MMP-2/TIMP-2 complex recognizes the latent and activated MMP-2 species and crossreacts with TIMP-2 (21 kDa).
as §3
Lane 1 is the control resulting from treatment of the cells with 0.1% DMSO. Lanes 2 and 3 correspond to those cells which are treated with 2 μM compound 1 in the absence of TGF-β1 for 24 and 48 hours, respectively. Lane 4 corresponds to cells which have been treated with TGF-β1 in the absence of compound 1. Lane 5 corresponds to cells which have been treated with TGF-β1 for 48 hours with compound 1 being added to the incubation mixture for the final 24 hours. […]

The mark [6] stands for this setting: with TGF-β1, 2 μM compound 1, 24 hr.
Where [7] appears, read: with TGF-β1, 2 μM compound 1, 48 hr.
Setting [8] is: without TGF-β1, 2 μM compound 1, 24 hr.
Where [9] appears, read: without TGF-β1, 2 μM compound 1, 48 hr.

For the compound `NC(=O)c1nnn(Cc2cc(Cl)c(C(=O)c3ccc(Cl)cc3)c(Cl)c2)c1N` [Compound 1, 5-amino-l-(4-(4-chlorobenzoyl)-3,5-dichlorobenzyl)-1,2,3-triazole-4-carboxamide], the “gelatinase activity, 92 kDa” value with MMP-9 (with TGF-β, 2 μM compound 1, 24 hr) stood at 78%; in the assay with MMP-9 (with TGF-β, 2 μM compound 1, 48 hr) it was 14%; in the assay with MMP-9 (without TGF-β, 2 μM compound 1, 24 hr), 73%; in the assay on MMP-9 (without TGF-β, 2 μM compound 1, 48 hr), 12%. For the same compound, the “gelatinase activity, 65 + 62 kDa” value with MMP-2 [1] (setting [6]) came out at 0%; with MMP-2 [1] (setting [7]), 0%; with MMP-2 [1] (setting [8]) it was 14%; in the assay on MMP-2 [1] (setting [9]) it was 0%. Also, the “gelatinase activity, 72 kDa” value in the assay with MMP-2 [1] (setting [6]) was determined as 44%; in the assay with MMP-2 [1] (setting [7]), 36%; in the assay on MMP-2 [1] (setting [8]), 84%; in the assay with MMP-2 [1] (setting [9]), 45%. Further, the “antiproliferative and antimetastatic activities” value in assay [2] is “antiproliferative and antimetastatic activities”. Besides, the calcium influx inhibition entry in assay [3] was “inhibits receptor-operated and voltage-gated calcium influx; also recorded: inhibit receptor-stimulated and voltage-gatedcalcium entry across cell membranes”. Also, the “expression of interstitial collagenase MMP-1” value in the assay on MMP-1 is “inhibits the expression of interstitial collagenase MMP-1”. The “reduction of gelatinase activity” value in the assay on gelatinase activity (A2058 and HT1080, 2 μM, 24 and 48 hr, no TGF-β1) is recorded as “increased from 24 to 48 hr exposure”. For the same compound, the “effect on TGF-β1-increased gelatinase activity” value is “little effect” in the assay with gelatinase activity (TGF-β1 48 hr, compound 1 over the final 24 hr) and “inhibited” in the assay with gelatinase activity (TGF-β1 with compound 1 co-incubation for 48 hr). Moreover, the “expression of type IV collagenase/gelatinase A MMP-2” value with MMP-2 [4] is “inhibits the expression”. Besides, the “inhibition in MMP-2 transcription” value in the assay with MMP-2 [4] (24 hr) and in the assay on MMP-2 [4] (48 hr) was “greater than 50%” each time. Further, in the assay on MMP-2 [5], the “inhibition of MMP-2 (immunoblot)” value is on record as “inhibits MMP-2 in a time-dependent manner”.

The record behind these values is patent US5602156A, “Method for inhibiting metalloproteinase expression” (The United States of America as represented by the …, priority 1994, dated 1997).
